Source: patent publication US11136296B2, “Substituted N-arylethyl-2-arylquinoline-4-carboxamides and use thereof” (Bayer Aktiengesellschaft, priority 2017, dated 2021)

Biological target: FP receptor (Homo sapiens (Human), UniProt P43088)
Test: In vitro test of inhibition of human FP receptor activity (PGF2α-induced calcium flux in FP-expressing CHEM1 cells)
Assay type: cell-based
Settings: PGF2α-induced (2 nM) calcium flux in FP-expressing CHEM1 cells; some as mean values from multiple determinations
Source text: Table 1 below lists the IC50 values from this assay for individual working examples of the invention (some as mean values from multiple independent individual determinations): […]

Sequence of FP receptor (P43088 whole entry): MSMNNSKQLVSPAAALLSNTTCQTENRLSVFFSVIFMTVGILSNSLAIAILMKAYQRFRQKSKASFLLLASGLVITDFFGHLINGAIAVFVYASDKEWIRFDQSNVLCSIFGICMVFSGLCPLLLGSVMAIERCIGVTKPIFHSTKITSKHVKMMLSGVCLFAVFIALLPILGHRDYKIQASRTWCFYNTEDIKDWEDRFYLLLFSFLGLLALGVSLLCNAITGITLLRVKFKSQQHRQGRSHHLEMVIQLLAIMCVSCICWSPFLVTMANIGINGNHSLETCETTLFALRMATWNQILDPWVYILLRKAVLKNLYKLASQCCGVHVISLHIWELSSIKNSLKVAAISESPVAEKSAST

| IC50 [µM] | Compound |
| --- | --- |
| 0.043 | Cc1c(-c2ccccc2)nc2ccc(Br)cc2c1C(=O)NCC(C)(C(=O)O)c1c(F)cccc1Cl (single isomer, unassigned; (-)) [Example 62, (−)-3-{[(6-Bromo-3-methyl-2-phenylquinolin-4-yl)carbonyl]amino}-2-(2-chloro-6-fluorophenyl)-2-methylpropanoic Acid] |
| 0.34 | Cc1c(-c2ccccc2)nc2ccc(Br)cc2c1C(=O)NCC(CC(=O)O)c1ccccc1 (single isomer, unassigned; (-)) [Example 64, (−)-4-{[(6-Bromo-3-methyl-2-phenylquinolin-4-yl)carbonyl]amino}-3-phenylbutanoic Acid] |
| > 1 | Cc1c(-c2ccccc2)nc2ccc(Br)cc2c1C(=O)NCC(CC(=O)O)c1ccc(Cl)cc1 (single isomer, unassigned; (-)) [Example 68, (−)-4-{[(6-Bromo-3-methyl-2-phenylquinolin-4-yl)carbonyl]amino}-3-(4-chlorophenyl)butanoic Acid] |
| 0.023 | Cc1ccccc1C(CNC(=O)c1c(C)c(-c2ccccc2)nc2ccc(Br)cc12)CC(=O)O (single isomer, unassigned; (-)) [Example 76, (−)-4-{[(6-Bromo-3-methyl-2-phenylquinolin-4-yl)carbonyl]amino}-3-(2-methylphenyl)butanoic Acid] |
| 0.016 | Cc1c(-c2ccccc2)nc2ccc(Br)cc2c1C(=O)NCC(C)(CC(=O)O)c1ncccc1Cl (single isomer, unassigned; (-)) [Example 85, (−)-4-{[(6-Bromo-3-methyl-2-phenylquinolin-4-yl)carbonyl]amino}-3-(3-chloropyridin-2-yl)-3-methylbutanoic Acid] |
| 0.019 | Cc1c(-c2ccccc2)nc2ccc(Br)cc2c1C(=O)NCC(CC(=O)O)c1c(F)cccc1Cl (single isomer, unassigned; (-)) [Example 88, (−)-4-{[(6-Bromo-3-methyl-2-phenylquinolin-4-yl)carbonyl]amino}-3-(2-chloro-6-fluorophenyl)butanoic Acid] |
| 0.32 | Cc1ccc(C(CNC(=O)c2c(C)c(-c3ccccc3)nc3ccc(Br)cc23)CC(=O)O)cc1 (single isomer, unassigned; (-)) [Example 92, (−)-4-{[(6-Bromo-3-methyl-2-phenylquinolin-4-yl)carbonyl]amino}-3-(4-methylphenyl)butanoic Acid] |
| 0.02 | Cc1c(-c2ccccc2)nc2ccc(Br)cc2c1C(=O)NCC(CC(=O)O)c1ccccc1OC(F)(F)F (single isomer, unassigned; (-)) [Example 100, (−)-4-{[(6-Bromo-3-methyl-2-phenylquinolin-4-yl)carbonyl]amino}-3-[2-(trifluoromethoxy)phenyl]butanoic Acid] |
| 0.29 | Cc1c(-c2ccccc2)nc2ccc(Br)cc2c1C(=O)NCC(CC(=O)O)c1ccccn1 (single isomer, unassigned; (-)) [Example 103, (−)-4-{[(6-Bromo-3-methyl-2-phenylquinolin-4-yl)carbonyl]amino}-3-(pyridin-2-yl)butanoic Acid] |
| 0.051 | Cc1c(-c2ccccc2)nc2ccc(Br)cc2c1C(=O)NCC(CC(=O)O)c1ccccc1C(F)(F)F (single isomer, unassigned; (-)) [Example 107, (−)-4-{[(6-Bromo-3-methyl-2-phenylquinolin-4-yl)carbonyl]amino}-3-[2-(trifluoromethyl)phenyl]butanoic Acid] |
| 0.075 | COc1cccnc1C(CNC(=O)c1c(C)c(-c2ccccc2)nc2ccc(Br)cc12)CC(=O)O (single isomer, unassigned; (-)) [Example 109, (−)-4-{[(6-Bromo-3-methyl-2-phenylquinolin-4-yl)carbonyl]amino}-3-(3-methoxypyridin-2-yl)butanoic Acid] |
| 0.074 | Cc1c(-c2ccccc2)nc2ccc(Br)cc2c1C(=O)NCC(C)(CC(=O)O)c1ccccc1F (single isomer, unassigned; (-)) [Example 116, (−)-4-{[(6-Bromo-3-methyl-2-phenylquinolin-4-yl)carbonyl]amino}-3-(2-fluorophenyl)-3-methylbutanoic Acid] |
| 0.15 | Cc1c(-c2ccccc2)nc2ccc(Br)cc2c1C(=O)NCC(C)(CC(=O)O)c1ccccn1 (single isomer, unassigned; (-)) [Example 119, (−)-4-{[(6-Bromo-3-methyl-2-phenylquinolin-4-yl)carbonyl]amino}-3-methyl-3-(pyridin-2-yl)butanoic Acid] |
| 0.46 | COc1ccccc1C(C)(CNC(=O)c1c(C)c(-c2ccccc2)nc2ccc(Br)cc12)CC(=O)O (single isomer, unassigned; (-)) [Example 122, (−)-4-{[(6-Bromo-3-methyl-2-phenylquinolin-4-yl)carbonyl]amino}-3-(2-methoxyphenyl)-3-methylbutanoic Acid] |
| 0.097 | COc1ccc(F)cc1C(CNC(=O)c1c(C)c(-c2ccccc2)nc2ccc(Br)cc12)CC(=O)O (single isomer, unassigned; (-)) [Example 125, (−)-4-{[(6-Bromo-3-methyl-2-phenylquinolin-4-yl)carbonyl]amino}-3-(5-fluoro-2-methoxyphenyl)butanoic Acid] |
| 0.11 | COc1cccc(F)c1C(CNC(=O)c1c(C)c(-c2ccccc2)nc2ccc(Br)cc12)CC(=O)O (single isomer, unassigned; (-)) [Example 128, (−)-4-{[(6-Bromo-3-methyl-2-phenylquinolin-4-yl)carbonyl]amino}-3-(2-fluoro-6-methoxyphenyl)butanoic Acid] |
| 0.32 | CCOc1ccccc1C(CNC(=O)c1c(C)c(-c2ccccc2)nc2ccc(Br)cc12)CC(=O)O (single isomer, unassigned; (-)) [Example 130, (−)-4-{[(6-Bromo-3-methyl-2-phenylquinolin-4-yl)carbonyl]amino}-3-(2-ethoxyphenyl)butanoic Acid] |
| 0.8 | COc1ccc(F)cc1C(C)(CNC(=O)c1c(C)c(-c2ccccc2)nc2ccc(Br)cc12)CC(=O)O (single isomer, unassigned; (-)) [Example 134, (−)-4-{[(6-Bromo-3-methyl-2-phenylquinolin-4-yl)carbonyl]amino}-3-(5-fluoro-2-methoxyphenyl)-3-methylbutanoic Acid] |
| 0.44 | COc1c(F)cc(F)cc1C(C)(CNC(=O)c1c(C)c(-c2ccccc2)nc2ccc(Br)cc12)CC(=O)O (single isomer, unassigned; (-)) [Example 137, (−)-4-{[(6-Bromo-3-methyl-2-phenylquinolin-4-yl)carbonyl]amino}-3-(3,5-difluoro-2-methoxyphenyl)-3-methylbutanoic Acid] |
| > 1 | COc1cc(F)ccc1C(C)(CNC(=O)c1c(C)c(-c2ccccc2)nc2ccc(Br)cc12)CC(=O)O (single isomer, unassigned; (-)) [Example 140, (−)-4-{[(6-Bromo-3-methyl-2-phenylquinolin-4-yl)carbonyl]amino}-3-(4-fluoro-2-methoxyphenyl)-3-methylbutanoic Acid] |
| 0.13 | COc1cccc(F)c1C(C)(CNC(=O)c1c(C)c(-c2ccccc2)nc2ccc(Br)cc12)CC(=O)O (single isomer, unassigned; (-)) [Example 144, (−)-4-{[(6-Bromo-3-methyl-2-phenylquinolin-4-yl)carbonyl]amino}-3-(2-fluoro-6-methoxyphenyl)-3-methylbutanoic Acid] |
